Where two headings read alike, the source gives them in different places. No end group written: not given here.
How the values were obtained:
[1] = tested on: polymorphonuclear leukocyte migration; experiment: Chemotaxis of polymorphonuclear leukocytes (trans-well, zymosan-activated human serum); type: cell-based; conditions: for inhibition of chemotaxis migration (in words): 10^-4 -10^-5 M
Procedure: The materials and methods for ascertaining the chemotactic inhibitory properties of peptides are generally known in the art, and the preferred procedure is described by Capsoni, et al., 1989, J. of Immunol. Meth., 120:125. Generally, chemotaxis is determined by positioning the leukocytes and a chemotactic substance on opposite sides of a membrane in appropriate culture media. The preferred apparatus for doing a chemotaxis assay is produced by Costar Corporation, Cambridge, Mass., and is termed the trans-well cell culture apparatus. […] If a substance is being tested for inhibitory activity this can be achieved by combining it with the leukocytes or the chemotactic substance.
The procedure of Capsoni, et al., above, was followed with the following modifications. Leukocytes may be isolated and labelled with ^111 Indium as described for the adhesion assay, above. The cells are resuspended after labelling in an appropriate cell culture medium at about 5×10^6 cells/ml. Next, a desired amount of the cell suspension is mixed with a predetermined amount of the peptide(s) to be tested for inhibitory activity, and the mixture added to an appropriate filter device. Three μm-pore membranes are situated in the wells of a 24 trans-well tissue culture plate. The cell/inhibitory peptide mixture is incubated for a short time at 37° C. to acclimate the cells to the membrane surface, and to provide sufficient time for them to settle onto the membrane surface. Next, inserts are set in wells containing cell culture media. The media contains zymosan-activated human serum at about 0.5%. Zymosan activation generates complement-derived chemotactic factors which attract the leukocytes through the pores of the membrane. This media was also prewarmed for an appropriate time prior to addition to the cell culture wells. After a 30 minute incubation period at 37° C., the number of leukocytes that have migrated through the membrane filter, in the presence or absence of CD18 peptides, is readily determined by counting the amount of ^111 Indium present in the media. This may be facilitated by adding an appropriate detergent at an appropriate concentration to the media in the wells prior to removing an aliquot for counting. In this way, the inhibitory activities of the peptide being tested could be determined.
Many of the materials and methods used to test the inhibitory activity of the CD18 peptides on the chemotactic response of the polymorphonuclear leukocytes are similar or identical to those used to perform the adhesion assays described in Example 1. Polymorphonuclear leukocytes were isolated and labelled with ^111 Indium as described before, and the cells were suspended in RPMI 1640 culture medium at a concentration of 5×10^6 /ml. Next, 75 μl of the cell suspension and 25 μl of media containing a desired concentration of a CD18 peptide were added to trans-well inserts, and the mixture was incubated at 37° C. for 10 minutes.
To the bottom wells of the 24-well plate 0.6 ml of media containing 0.5% zymosan-activated human serum was added. This solution was also warmed to 37° C. for 10 minutes prior to use.
Next, the assay was conducted by incubating the trans-well inserts containing the cell suspension with the desired CD18 peptide in the 24-well plates at 37° C. for 30 minutes. Subsequently, the inserts were removed, and 60 μl of a 10% sodium dodecyl sulphate solution was added to the wells of the 24-well plate. The plates were incubated with gentle shaking at room temperature for 15 minutes, and 110 μl aliquots were removed and the amount of ^111 Indium determined using a gamma-counter.

[2] = tested on: polymorphonuclear leukocyte adhesion to TNF activated endothelial cells; type: cell-based, human; conditions: for Average % Change of PMN Adhesion to TNF Activated ECs: average over PMN donors (# donors in parentheses)
Procedure: Leukocyte adherence can be measured using several assays known in the art, and the preferred assay is described by Charo, et al., 1985, Blood, 65:473. Briefly, the assay consists of labelling leukocytes with an appropriate label, incubating them with endothelial cells and determining the number of leukocytes that adhere. Preferably the cells are labelled with a gamma ray emitting isotope and the preferred labels are ^111 Indium-oxide or ^51 chromium.
Leukocytes may be isolated from human donors using standard techniques. This generally consists of isolating blood in a physiologically balanced salt solution containing an appropriate anticoagulant, and separating the leukocytes by an appropriate separation step, preferably on Ficoll-Hypaquegradients. Contaminating erythrocytes can be removed by hypotonic lysis. The resulting leukocytes are suspended in a physiologically buffered solution, pH 7.4. The preferred physiological buffered solution is Hank's balanced salt solution that is calcium and magnesium free.
The isolated leukocytes can then be labelled by incubating them for an appropriate time, generally 15 minutes, with the desired radioisotope at a predetermined concentration. The radiolabelled cells are washed to remove unincorporated label, and then suspended in an appropriate solution to perform the adhesion assay described below.
Endothelial cells can be prepared from a number of sources and by several techniques known in the art. Preferably they are obtained from human umbilical veins using the procedure of Charo et al., above. Generally, endothelial cells are isolated by enzymatic digestion of the umbilical veins using, preferably, collagenase as described by Jaffe, E. A., et al., 1973, J. of Clin. Invest, 52:2745. The cells are grown on an appropriate tissue culture substratum, preferably gelatine-coated surfaces.
The endothelial cells may be grown in a variety of tissue culture media containing appropriate supplements such as an appropriate concentration of fetal calf serum, and other supplements/additives routinely utilized by those skilled in this art that are recognized as being favorable for endothelial cells. The endothelial cells may be passaged with a dilute solution of an appropriate protease, and if desired a metal ion chelator. Preferably a solution consisting of 0.05 to 0.25% trypsin and 0.02% EDTA is used. To ensure that the cells are indeed endothelial cells, they are tested by immunofluorescence for Factor VIII antigen, a known endothelial cell marker.
Leukocyte adherence to endothelial cell monolayers may be determined as follows. Early passage endothelial cells, generally not beyond the fifth passage, are cultured on an appropriate substratum and in a suitable cell culture medium. The culture substratum is preferably pre-coated with an appropriate substance that enhances the adherence of the endothelial cells. Several such substances are known including fibronectin, poly-L-lysine, gelatin and laminin. Fibronectin is preferred. An appropriate culture substratum is a 96 well micro titer plate, and a suitable medium is Medium 199 containing fetal calf serum and other supplements known to be beneficial for the growth and maintenance of endothelial cells that are well known to those skilled in the art. Prior to adding a predetermined number of labelled leukocytes, the endothelial cell monolayer is washed with a physiologically balanced salt solution containing a reduced amount of fetal calf serum, preferably 1%. The preferred solution is RPMI supplemented with 1% fetal calf serum.
The endothelial cell monolayer containing added leukocytes is incubated for a time sufficient to permit maximum adherence of the leukocytes, and preferably this is conducted at 37° C. for 30 minutes in an appropriate cell culture atmosphere. Generally this would consist of growing and incubating the cells for the assay period in 5% CO2, 95% air, and 95% humidity. […]

| Sequence | inhibition of chemotaxis migration (in words) [1] | percent inhibition (-) or enhancement of polymorphonuclear leukocyte migration ([1]; 10^-4 M, donor 195) [%] | percent inhibition (-) or enhancement of polymorphonuclear leukocyte migration ([1]; 10^-4 M, donor 499) [%] | percent inhibition (-) or enhancement of polymorphonuclear leukocyte migration ([1]; 10^-4 M, donor 591) [%] | percent inhibition (-) or enhancement of polymorphonuclear leukocyte migration ([1]; 10^-4 M, donor 593) [%] | percent inhibition (-) or enhancement of polymorphonuclear leukocyte migration ([1]; 10^-5 M, donor 195) [%] | percent inhibition (-) or enhancement of polymorphonuclear leukocyte migration ([1]; 10^-5 M, donor 499) [%] | percent inhibition (-) or enhancement of polymorphonuclear leukocyte migration ([1]; 10^-5 M, donor 591) [%] | percent inhibition (-) or enhancement of polymorphonuclear leukocyte migration ([1]; 10^-5 M, donor 593) [%] | percent inhibition (-) or enhancement of polymorphonuclear leukocyte migration ([1]; 10^-6 M, donor 195) [%] | percent inhibition (-) or enhancement of polymorphonuclear leukocyte migration ([1]; 10^-6 M, donor 499) [%] | percent inhibition (-) or enhancement of polymorphonuclear leukocyte migration ([1]; 10^-6 M, donor 591) [%] | percent inhibition (-) or enhancement of polymorphonuclear leukocyte migration ([1]; 10^-6 M, donor 593) [%] | activity on PMN adhesion at 10^-4 M (in words) ([2]; 10^-4 M) | Average % Change of PMN Adhesion to TNF Activated ECs ([2]; 10^-4 M) [%] | Average % Change of PMN Adhesion to TNF Activated ECs ([2]; 10^-6 M) | Average % Change of PMN Adhesion to TNF Activated ECs ([2]; 10^-8 M) | Average % Change of PMN Adhesion to TNF Activated ECs ([2]; 10^-5 M) | Average % Change of PMN Adhesion to TNF Activated ECs ([2]; 10^-7 M) |
| --- | --- | --- | --- | --- | --- | --- | --- | --- | --- | --- | --- | --- | --- | --- | --- | --- | --- | --- | --- |
| FDYPSVGQLAHKLAENNIQPIFAVT [Peptide 2-24, NH2 --Phe--Asp--Tyr--Pro--Ser--Val--Gly--Gln--Leu--Ala--His--Lys--Leu--Ala--Glu--Asn--Asn--Ile--Gln--Pro--Ile--Phe--Ala--Val--Thr--COOH] | marked inhibition | -48 | -77 | -73 | -89 | -33 | -33 | -9 | -40 | 22 | 0 | -17 | -22 | show activity | -79 | -10% | -2% |  |  |
| IPKSAVGELSEDSSNVVHLIKNAYNKLSS [Peptide 3-29, NH2 --Ile--Pro--Lys--Ser--Ala--Val--Gly--Glu--Leu--Ser--Glu--Asp--Ser--Ser--Asn--Val--Val--His--Leu--Ile--Lys--Asn--Ala--Tyr--Asn--Lys--Leu--Ser--Ser--COOH] | marked inhibition | -7 | -33 | -57 | -85 | 11 | 23 | -6 | -17 | -26 | -10 | 11 | -6 | show activity | -58 | -5% | -2% | +12% | +27% |
| RIGFGSFVDKTVLPFVNTHPDKLRN [Peptide 6-25, NH2 --Arg--Ile--Gly--Phe--Gly--Ser--Phe--Val--Asp--Lys--Thr--Val--Leu--Pro--Phe--Val--Asn--Thr--His--Pro--Asp--Lys--Leu--Arg--Asn--COOH] |  | -4 | -3 | -16 | -51 | 11 | -13 | 49 | 26 | -44 | -8 | 49 | 20 |  | -13 | +8% | +12% |  |  |
| VGKQLISGNLDAPEGGLDAMMQVA [Peptide 5-24, NH2 --Val--Gly--Lys--Gln--Leu--Ile--Ser--Gly--Asn--Leu--Asp--Ala--Pro--Glu--Gly--Gly--Leu--Asp--Ala--Met--Met--Gln--Val--Ala--COOH] |  | -52 | 0 | 51 | -33 | -56 | -15 | 55 | 12 | -22 | -26 | 52 | -4 |  | -17 | -13% | -6% |  |  |

— US5340800A, “Peptide medicaments for the treatment of disease” (priority 1992, dated 1994)
